Results on 2 compounds are retold here after patent US11707442B2, “Antibacterial and antifungal compounds” (The General Hospital Corporation, priority 2015, dated 2023).

The subject of test [1] is C. elegans infected with MRSA strain MW2. The class given is in vivo. As to conditions: result in words. The protocol:
The C. elegans-MRSA liquid infection assay has been described (Rajamuthiah et al. Plos One. 2014; 9(2):e89189). In brief, 4,500 glp-4 (bn2); sek-1(km4) L1 hatchlings were grown on SK-HB101 agar plates for 52 hours at the restrictive temperature of 25° C. until animals became sterile young adults and later harvested with M9 buffer. S. aureus MW2 was grown overnight at 37° C. in TSB, first under aerobic conditions and later shifted to anaerobic growth conditions at 37° C. The infection assay was performed in standard 384-well assay plates, in the presence of the compound being tested or 1% dimethyl sulfoxide (DMSO) as a control. Bacteria were added to the wells at a final OD600 of 0.06, followed by the use of a Complex Object Parametric Analyzer and Sorter (COPAS) large particle sorter (Union Biometrica, Holliston, Mass., USA) to transfer 15 adult worms to each well of an assay plate. After 5 days of incubation in a humidified chamber at 25° C., the bacteria and other debris were washed from the wells with a microplate washer and the worms were stained with the vital dye Sytox Orange (Life Technologies). After overnight incubation at 25° C. in a humidified chamber, the plates were imaged using an Image Xpress Micro automated microscope (Molecular Devices, Sunnyvale, Calif., USA), capturing both transmitted light and TRITC (535 nm excitation, 610 nm emission) fluorescent images with a 2× objective. The images from the infection assay were processed using the open source image analysis software CellProfiler and analysis modules as described previously. The ratio of Sytox worm area to bright field worm area, and the resultant percentage survival data, is calculated by the software for each well of the assay plates. The assay was performed in triplicate comparing the survival of worms at various concentrations of drugs.
Killing assays were carried out as described in Methods using S. aureus MRSA MW2 and 10 μg/ml retinoids, 10 μg/ml vancomycin (positive control), or 1% DMSO (negative control) at 25° C. for 5 days. Data are representative of three independent experiments. (B) Chemical structures of synthetic retinoids. (C) Growth of MRSA strain MW2 exposed to the indicated concentrations of compounds was quantified by measuring OD600 after 18 h in tryptic soy broth (TSB). (D) C. elegans infected with MRSA strain MW2 was treated with indicated concentrations of compounds. Percent survival of C. elegans was normalized to C. elegans treated with DMSO. (E-F) MRSA persisters prepared as described in Methods were treated with the indicated concentrations of each retinoid. Viability was measured by serial dilution and plating on TSA plates. The data points on the x-axis are below the level of detection (2×10^2 CFU/ml). (E,F) Results are shown as means±s.d.; n=3.

The subject of test [2] is E. faecalis. The experiment in a line: MIC, broth microdilution. The class given is cell-based, Enterococcus faecalis. As to conditions: result in words. The procedure: To test the bacterial MICs for compounds described herein, the total volume in each well was 100 μl of test compounds and bacterial cells in MH broth. Two-fold serial dilutions were carried out to get compounds in the concentration range 0.0625-64 μg/ml. The bacterial concentration was adjusted to an initial OD600 of 0.03. After incubation at 35° C. for 18 hrs, the absorbance was measured at 595 nm in accordance with CLSI document M07-A8. The MICs of antibiotics were determined by the standard microdilution method recommended by the Clinical and Laboratory Standards Institute.

The subject of test [3] is E. faecium. The test is described as follows: MIC, broth microdilution. The class given is cell-based, Enterococcus faecium. The following applies: for MIC: Enterococcus faecium. From the text: (§1) Bacterial strains and growth conditions and persister isolation: methicillin-resistant S. aureus (MRSA) strain MW2 BAA-1707, vancomycin-resistant S. aureus strain VRS 1, 11 clinical S. aureus isolates, 8 clinical Enterococcus faecium isolates, Klebsiella pneumoniae WGLW2 (BEI Resources, Manassas, Va., USA), Acinetobacter baumannii ATCC 17978, Pseudomonas aeruginosa PA14, and Enterobacter aerogenes ATCC 13048 were used to test antimicrobial activity (See Table 1a). S. aureus and E. faecium strains were grown in tryptic soy broth (TSB) (BD, Franklin Lakes, N.J., USA) or brain-heart infusion (BHI) broth (BD, Franklin Lakes, N.J., USA), respectively at 37° C. at 225 rpm. K. pneumoniae, A. baumannii, P. aeruginosa, and E. aerogenes were grown in Luria Bertani (LB) broth (BD, Franklin Lakes, N.J., USA).
(§2) To test the bacterial MICs for compounds described herein, the total volume in each well was 100 μl of test compounds and bacterial cells in MH broth. […] The bacterial concentration was adjusted to an initial OD600 of 0.03. After incubation at 35° C. for 18 hrs, the absorbance was measured at 595 nm in accordance with CLSI document M07-A8. The MICs of antibiotics were determined by the standard microdilution method recommended by the Clinical and Laboratory Standards Institute.

Test [4] relates to S. aureus. The experiment in a line: Minimal inhibitory concentration (MIC), broth microdilution. The class given is cell-based, Staphylococcus aureus. The following applies: for MIC: Staphylococcus aureus.
Text: as §1, §2
(In general: Broth dilution looks for growth in wells or tubes with falling amounts of substance.)

Test [5] concerns E. aerogenes ATCC 13048. The experiment in a line: MIC, broth microdilution. The class given is cell-based, Enterobacter aerogenes. The following applies: Klebsiella aerogenes, ATCC13048; E. aerogenes ATCC 13048; read-out: Minimum inhibitory concentration.
Text: as §1, §2

Test [6] relates to A. baumannii. The test is described as follows: MIC, broth microdilution. The class given is cell-based, Acinetobacter baumannii. As to conditions: Acinetobacter baumannii, ATCC17978; A. baumannii ATCC 17978; read-out: Minimum inhibitory concentration.
Text: as §1, §2

Test [7] deals with P. aeruginosa. The test is described as follows: MIC, broth microdilution. As to conditions: Pseudomonas aeruginosa; P. aeruginosa PA14; read-out: Minimum inhibitory concentration. The class given is cell-based, Pseudomonas aeruginosa.
Text: as §1, §2

Test [8] concerns K. pneumonia WGLW2. The test is described as follows: MIC, broth microdilution. The class given is cell-based, Klebsiella pneumoniae. As to conditions: Klebsiella pneumoniae; K. pneumonia WGLW2; read-out: Minimum inhibitory concentration.
Text: as §1, §2

Converted amounts (≈) assume the structure as drawn. “Also recorded” adds a separate entry of the source. Like-named read-outs stand apart in the source and are kept apart here.

For the compound `COc1ccc(-c2ccc3cc(C(=O)O)ccc3c2)cc1C12CC3CC(CC(C3)C1)C2` [Adapalene, 6-(4-methoxy-3-tricyclo[3.3.1.13,7]dec-1-ylphenyl)-2-naphthalenecarboxylic acid], in test [1], the “rescue of C. elegans from MRSA infection” value was “nor did it protect”. For the same compound, the “susceptibility of E. faecalis” value in test [2] is “not inhibited”. Besides, in test [3] (result in words), the “susceptibility of E. faecium” value is on record as “not inhibited”. For the same compound, the “direct inhibition of MRSA growth” value in test [4] (MRSA MW2, result in words) was “did not inhibit; also recorded: did not have significant antimicrobial activity”.
For `Cc1onc(-c2ccccc2)c1C(=O)N[C@@H]1C(=O)N2[C@@H]1SC(C)(C)[C@@H]2C(=O)O` [Oxacillin], the MIC in test [5] was over 64 µg/mL; in test [3] (E. faecium C68, read-out: Minimum inhibitory concentration), over 64 µg/mL; in test [3] (E. faecium D14, read-out: Minimum inhibitory concentration) it was over 64 µg/mL; in test [3] (E. faecium D24, read-out: Minimum inhibitory concentration), over 64 µg/mL; in test [3] (E. faecium D25, read-out: Minimum inhibitory concentration) it was over 64 µg/mL; in test [3] (E. faecium D29, read-out: Minimum inhibitory concentration), over 64 µg/mL. Also, the MIC in test [3] (E. faecium E007, read-out: Minimum inhibitory concentration) was over 64 µg/mL; in test [3] (E. faecium WB213, read-out: Minimum inhibitory concentration), over 64 µg/mL; in test [3] (E. faecium WC176, read-out: Minimum inhibitory concentration) it was over 64 µg/mL; in test [3] (Enterococcus faecium clinical isolate C68 (Table 6), read-out: Drug MIC), over 64 µg/mL; in test [3] (Enterococcus faecium clinical isolate D14 (Table 6), read-out: Drug MIC), 2 µg/mL (≈ 4.98 µM); in test [3] (Enterococcus faecium clinical isolate D24 (Table 6), read-out: Drug MIC), 1 µg/mL (≈ 2.49 µM). Besides, the MIC was 1 µg/mL (≈ 2.49 µM) in test [3] (Enterococcus faecium clinical isolate D25 (Table 6), read-out: Drug MIC); 2 µg/mL (≈ 4.98 µM) in test [3] (Enterococcus faecium clinical isolate D29 (Table 6), read-out: Drug MIC); over 64 µg/mL in test [3] (Enterococcus faecium clinical isolate W312 (Table 6), read-out: Drug MIC); over 64 µg/mL in test [3] (Enterococcus faecium clinical isolate WC176 (Table 6), read-out: Drug MIC); over 64 µg/mL in test [6]; over 64 µg/mL in test [7]. Besides, the MIC in test [4] (S. aureus BF1, read-out: Minimum inhibitory concentration) was over 64 µg/mL; in test [4] (S. aureus BF2, read-out: Minimum inhibitory concentration), over 64 µg/mL; in test [4] (S. aureus BF3, read-out: Minimum inhibitory concentration), 32 µg/mL (≈ 79.7 µM); in test [4] (S. aureus BF4, read-out: Minimum inhibitory concentration) it was 16 µg/mL (≈ 39.9 µM); in test [4] (S. aureus BF5, read-out: Minimum inhibitory concentration), over 64 µg/mL; in test [4] (S. aureus BF6, read-out: Minimum inhibitory concentration), 1 µg/mL (≈ 2.49 µM). For the same compound, the MIC was over 64 µg/mL in test [4] (S. aureus BF7, read-out: Minimum inhibitory concentration); over 64 µg/mL in test [4] (S. aureus BF8, read-out: Minimum inhibitory concentration); 0.25 µg/mL (≈ 0.623 µM) in test [4] (S. aureus BF9, read-out: Minimum inhibitory concentration); over 64 µg/mL in test [4] (S. aureus BF10, read-out: Minimum inhibitory concentration); over 64 µg/mL in test [4] (S. aureus BF11, read-out: Minimum inhibitory concentration); 64 µg/mL (≈ 159 µM) in test [4] (S. aureus MW2, read-out: Minimum inhibitory concentration). The MIC was over 64 µg/mL in test [4] (S. aureus VRS1, read-out: Minimum inhibitory concentration); over 64 µg/mL in test [4] (Staphylococcus aureus clinical isolate BF1 (Table 5), read-out: Drug MIC); over 64 µg/mL in test [4] (Staphylococcus aureus clinical isolate BF2 (Table 5), read-out: Drug MIC); 32 µg/mL (≈ 79.7 µM) in test [4] (Staphylococcus aureus clinical isolate BF3 (Table 5), read-out: Drug MIC); 16 µg/mL (≈ 39.9 µM) in test [4] (Staphylococcus aureus clinical isolate BF4 (Table 5), read-out: Drug MIC); over 64 µg/mL in test [4] (Staphylococcus aureus clinical isolate BF5 (Table 5), read-out: Drug MIC). The MIC in test [4] (Staphylococcus aureus clinical isolate BF6 (Table 5), read-out: Drug MIC) is 1 µg/mL (≈ 2.49 µM); in test [4] (Staphylococcus aureus clinical isolate BF7 (Table 5), read-out: Drug MIC), over 64 µg/mL; in test [4] (Staphylococcus aureus clinical isolate BF8 (Table 5), read-out: Drug MIC), over 64 µg/mL; in test [4] (Staphylococcus aureus clinical isolate BF9 (Table 5), read-out: Drug MIC), 0.25 µg/mL (≈ 0.623 µM); in test [4] (Staphylococcus aureus clinical isolate BF10 (Table 5), read-out: Drug MIC) it was over 64 µg/mL; in test [4] (Staphylococcus aureus clinical isolate BF11 (Table 5), read-out: Drug MIC), over 64 µg/mL. Also, the MIC in test [8] is over 64 µg/mL.
